Where a SMILES comes first, the peptide text is derived from it. The star is where a group is joined. Cbz = O=C(OCc1ccccc1)*
Columns and labels:
CypA [1] = molecular target: T1, CypA (Homo sapiens, UniProt P62937); conditions: cited from earlier work
CypA [2] = molecular target: T1, CypA; assay: Degradation of endogenous CypA in HeLa cells (western blot); assay type: cell-based; design: The degradation of endogenous CypA in HeLa cells was investigated; endogenous in cells; host or cells: HeLa; conditions: 1 μM epoxomicin, 3 μM MG-132, 1 μM CsA, 10 μM VHL ligand
Protocol: (§1) HeLa cells and primary human dermal fibroblasts isolated from neonatal foreskin (HDFn) were adherent cells and were cultured in commercially available, ready-to-use DMEM ([…], Gibco, Waltham, MA, USA) supplemented with 10% (v/v) FBS (Fetal Bovine Serum, Sigma-Aldrich) and antibiotics (Streptomycin/Penicillin, 1:1000 dilution) in polystyrene culture flasks. Growth conditions for all cell lines were maintained in a humidified chamber at 37 °C and 5% CO2. For subculturing or prior counting, the cells were treated with trypsin-EDTA (Life Technologies GmbH, Carlsbad, CA, USA) to detach them from the surface.
(§2) A total of 5 × 10^5 HeLa cells or HDFn was plated in 6-well plates the day before treatment. […] An amount of 200 μL PROTAC dilutions (0.1 μM and 1.0 μM) in DMSO (final concentration 0.1% (v/v)) were added to the culture medium and incubated at 37.0 °C and 5.0% CO2 for the desired time. As a blank, the cells were incubated with 200 μL DMSO under the same conditions. After the appropriate incubation time, the medium was aspirated, and the cells were washed twice with 1× PBS.
(§3) Cells were lysed in ice-cold 1× Laemmli buffer (100 mM DTT) after two washes with 1× PBS. After denaturation (95 °C for 5 min) and shearing of the DNA by sonication, the samples were loaded on Tricine-SDS-PAGE, electrophoresed, and blotted onto a PVDF membrane. After staining with S-Ponceau staining solution and blocking, the membranes were incubated overnight at 4 °C in primary rabbit anti-CypA antibody (Cell Signaling Technology #2175S, Danvers, MA, USA) and for 1 h at room temperature with secondary antibody (IRDye® 800 CW Goat anti-Rabbit IgG Secondary Antibody, LI-COR). All membranes were then reprobed with rabbit anti-beta actin (Cell Signaling Technology #4967) to ensure equal protein loading. The intensities of the bands on western blot films were quantified using the LI-COR Odyssey Imaging System and the software Image Studio Lite (version 3.1). The CypA values were normalized to β-actin, and DMSO was arbitrarily assigned a value of 100% for comparison purposes.

CypA [3] = molecular target: T1, CypA; assay: Degradation of CypA in HDFn fibroblasts (western blot); assay type: cell-based; design: endogenous in cells; host or cells: primary PBMCs from healthy donors; conditions: 1 μM epoxomicin, 3 μM MG-132, 1 μM CsA, 10 μM VHL ligand
Protocol: as §1, §2, §3

T1 sequence (P62937 whole entry): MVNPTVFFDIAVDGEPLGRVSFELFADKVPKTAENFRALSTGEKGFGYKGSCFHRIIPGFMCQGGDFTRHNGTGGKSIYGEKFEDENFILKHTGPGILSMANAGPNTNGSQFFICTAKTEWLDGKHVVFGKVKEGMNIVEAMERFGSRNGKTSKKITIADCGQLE

| Compound | CypA inhibitor potency (CypA [1]) | effect of 1 h pre-treatment with the substance on CypA degradation by P3 or P5 (CypA [2]) | effect of 1 h pre-treatment with the substance on CypA degradation by P3 or P5 (CypA [3]) |
| --- | --- | --- | --- |
| C/C=C/C[C@@H](C)[C@@H](O)[C@H]1C(=O)N[C@@H](CC)C(=O)N(C)[C@H](C)C(=O)N(CC)[C@@H](C(C)C)C(=O)N[C@@H](C(C)C)C(=O)N(C)[C@@H](CC(C)C)C(=O)N[C@@H](C)C(=O)N[C@H](C)C(=O)N(C)[C@@H](CC(C)C)C(=O)N(C)[C@@H](CC(C)C)C(=O)N(C)[C@@H](C(C)C)C(=O)N1C [Alisporivir] | low nM | – | – |
| Cc1ncsc1-c1ccc(CNC(=O)[C@@H]2C[C@@H](O)CN2C(=O)[C@@H](N)C(C)(C)C)cc1 [VHL ligand 1] | – | recovery of CypA band | recovery of CypA band |
| CC(C)C[C@@H](C=O)NC(=O)[C@H](CC(C)C)NC(=O)[C@H](CC(C)C)NC(=O)OCc1ccccc1 [MG-132] (Cbz-Leu-Leu-Leu-aldehyde) | – | suppressed | suppressed |
| CC[C@H](C)[C@H](NC(=O)[C@H]([C@@H](C)CC)N(C)C(C)=O)C(=O)N[C@H](C(=O)N[C@@H](CC(C)C)C(=O)[C@@]1(C)CO1)[C@@H](C)O [Ep, epoxomicin] | – | suppressed | suppressed |
